Measured values taken from PMC7841309, “Involvement of the Mitochondrial Protein Tyrosine Phosphatase PTPM1 in the Promotion of Conidiation, Development, and Pathogenicity in Colletotrichum graminicola” (Frontiers in Microbiology, 2021).

Target: T1, CgPTPM1 (Colletotrichum graminicola, UniProt E3QMN0)
T1 construct: gene GLRG_07262; full-length ORF (1869 bp cDNA, 622 residues) in pET28a, His-tag, E. coli BL21, Ni-NTA, about 74 kDa
Test: colorimetric phosphatase assay, […] nm
Type: biochemical
Details: 0.1 M Tris, 0.25 M NaCl, 5 mM EDTA, 10 mM DTT, pH 8.2, 37 C, 30 min

T1 sequence (E3QMN0 entry or part of it): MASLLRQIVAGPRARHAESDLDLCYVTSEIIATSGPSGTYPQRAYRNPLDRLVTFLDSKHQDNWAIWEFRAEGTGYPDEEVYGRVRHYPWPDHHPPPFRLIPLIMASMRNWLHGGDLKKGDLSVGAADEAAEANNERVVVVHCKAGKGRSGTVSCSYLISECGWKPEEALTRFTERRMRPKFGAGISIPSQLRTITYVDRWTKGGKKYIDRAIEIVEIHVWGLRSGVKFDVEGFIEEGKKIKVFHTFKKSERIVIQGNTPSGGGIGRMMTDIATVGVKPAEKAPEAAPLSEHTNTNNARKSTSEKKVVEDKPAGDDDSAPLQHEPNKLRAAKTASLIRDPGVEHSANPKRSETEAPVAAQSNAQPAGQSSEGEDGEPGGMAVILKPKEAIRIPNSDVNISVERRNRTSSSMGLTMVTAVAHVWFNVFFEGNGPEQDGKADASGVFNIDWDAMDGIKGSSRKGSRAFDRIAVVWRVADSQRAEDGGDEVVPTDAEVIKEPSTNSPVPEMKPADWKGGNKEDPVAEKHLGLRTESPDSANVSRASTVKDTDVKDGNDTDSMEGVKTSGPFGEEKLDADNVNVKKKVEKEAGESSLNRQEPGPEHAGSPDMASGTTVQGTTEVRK

O=[N+]([O-])c1ccc(OP(=O)(O)O)cc1 [pNPP, p-nitrophenyl phosphate]
colorimetric phosphatase assay, 405 nm: Using pNPP as a substrate, the protein phosphatase activity was detected using the colorimetric method
